Measurements taken from patent US20240316059A1, “PEPTIDE DRUG CONJUGATES” (Oncopeptides AB, priority 2021, published 2024).
Like-named read-outs stand apart in the source and are kept apart here.

Tests used:
[1] = system: THP-1; assay: In vitro cytotoxicity, THP-1 (Acute Myeloid Leukemia); type: cell-based; conditions: Homo sapiens, THP-1, 72 h, read-out: Cytotoxicity IC50, THP-1
Description: (§1) All cells were cultivated in RPMI medium 1640 (IX). All media was supplemented with 10 μg/μl penicillin/streptomycin, 10% heat inactivated FBS, 0.1 mM Sodium Pyruvate, 1×MEM NEAA (ThermoFisher) and 1 mM HEPES. The DERL-2 cells had higher FBS (20%) and 40 ng/mL IL-2 was added. hPBMCs were thawed and allowed to acclimatise overnight and then stimulated with 10 μg/mL PHA-M and 40 ng/mL IL-2 for 4 hours before being exposed to test compounds. All cells, except for hPBMCs, were grown to reach log phase before being exposed to the test compounds.
(§2) Test compounds were dissolved in 100% DMSO and added to a 384 assay plate. Additional DMSO was added to maintain the same final DMSO concentration (0.2%) in all wells. 25 μL cell suspension with a concentration of 100000 cells/mL was added to each well. The cells were cultured in a CO2 incubator at 37° C. for 72 h. Plates were equilibrated to room temperature for 30 minutes before adding 20 μL CellTiter-Glo® 2.0 (Promega) reagent to all wells. The plate was then allowed to stabilize for 20 minutes before recording the luminescence (Em filter 700 nm) in an Envision plate reader.

[2] = system: U266; assay: In vitro cytotoxicity, U266 (Multiple Myeloma); type: cell-based; conditions: Homo sapiens, U-266, 72 h, read-out: Cytotoxicity IC50, U266
Description: as §1, §2

[3] = system: MM.1S cells; assay: Cellular retention/efflux: intracellular and extracellular concentrations by LC-MS/MS; type: in vitro ADME, human
Description: Methods: MMA1S cells at 2×10^6 cells/mL were seeded at 250 μL per well in a 96-well plate. Cells were incubated in the presence of a test compound for 5, 15, and 60 min before pelleting cells by centrifugation at +4° C. for 5 min. Cell media was immediately harvested to a second plate and stored at −80° C. until further analysis. Pelleted cells were washed once with ice cold PBS before storage at −80° C. until further analysis.
Cells were lysed and protein in the media were precipitated using acetonitrile dimethylformamide, 9:1 containing internal standard. Samples were centrifuged and the supernatant was analyzed with LC-MS/MS (ACQUITY UPLC-Xevo TQ-S micro) to determine compound concentration.
Example compound 1, bendamustine and melphalan were used as test compounds.
Method: Method described in Biological example 3.
Example compounds 1, 2, 3, 4, 6, 7 and 10 were investigated. Intracellular metabolites are formed from all compounds tested. The compound used for cell treatment was metabolised to the ester-hydrolysed compound (here called Metabolite A) and to the amide-hydrolysed compound (called Metabolite B). The example compound structures and the structures of the two metabolites for the respective compounds were as shown in Table 4. The Metabolites B formed under the conditions tested were compounds with structure as Examples 17 and 18: […]

[4] = system: KMS-12-BM; assay: In vitro cytotoxicity, KMS-12-BM (Multiple Myeloma); type: cell-based; conditions: Homo sapiens, 72 h, read-out: Cytotoxicity IC50, KMS-12-BM
Description: as §1, §2

[5] = system: SU-DHL-4 human lymphoma cell line; assay: In ovo chicken embryo xenograft model, tumour weight; type: in vivo; conditions: 100 μL injected day 11, 13, 15, 17, tumours weighed day 18
Description: Methods: Inoculation of Fertilized White Leghorn eggs was performed with 3×10^6 SU-DHL-4 tumour cells on day 9 (post-fertilisation). Viable eggs were injected with 100 μL of either Example compound 1 (8.4 uM (0.008 mg/kg), 33.5 uM (0.033 mg/kg), 167.5 uM (0.164 mg/kg)), bendamustine (8.4 uM (0.005 mg/kg), 33.5 uM (0.02 mg/kg), 167.5 uM (0.1 mg/kg)) or vehicle on day 11, 13, 15 and 17. On day 18, tumours were removed and weighed.

[6] = system: MM.1S cells; assay: In vitro cytotoxic potency in MM.1S cell viability assay (CellTiter-Glo); type: cell-based, human; conditions: Homo sapiens, MM1.S, 72 h
In short: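 Log-phase MM.1S cells in supplemented RPMI 1640 were seeded at 100000 cells/mL with compound (0.2% DMSO final). After 72 h at 37 °C in CO2, viability was measured by CellTiter-Glo 2.0 luminescence.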

[7] = read-out: Cytotoxicity IC50, MM.1S

Structure (SMILES)	IC50 [1] [µM]	IC50 [2] [µM]	Intracellular concentration (in words) ([3]; MM.1S cells incubated with test compound 5, 15, 60 min, metabolites measured after treatment with the parent Example compound)	Extracellular concentration (in words) ([3]; media of MM.1S cells incubated with test compound 5, 15, 60 min, metabolites measured after treatment with the parent Example compound)	IC50 [4] [µM]	Tumour reduction compared to vehicle ([5]; 33.5 μM) [%]	Tumour reduction compared to vehicle ([5]; 167.5 μM) [%]	IC50 [6, 7] [µM]	IC50 ([6]; read-out: MM.1S IC50) [µM]	Intracellular hydrolysis / formation of metabolites ([3]; MM.1S cells, 5, 15, 60 min)	Tumour reduction compared to vehicle ([5]; 8.4 μM) [%]
Cn1c(CCCC(=O)O)nc2cc(N(CCCl)CCCl)ccc21 [Bendamustine, bendamustine, reference compound]	40.2	83	Low intracellular concentrations	quite high and decreased overtime	27.5	30	76	24	24		
CCOC(=O)[C@H](CC(C)C)NC(=O)[C@@H](N)CCc1nc2cc(N(CCCl)CCCl)ccc2n1C [Example 1, Ethyl (2S)-2-[[(2S)-2-amino-4-[5-[bis(2-chloroethyl)amino]-1-methyl-benzimidazol-2-yl]butanoyl]amino]-4-methyl-pentanoate]	0.016	0.0214			0.0079	70	82	0.0068	0.0068	hydrolysis of Example compound 1 took place inside the cells	38
